Values joined by “and” are separate entries in the source; they are usually repeats but may differ in a detail not shown here. Identical values can stand only once. One block for each molecule: values may come before it.
Tests used:
Assay type in all cases: biochemical
BRISC BRCC36 L169W = BRISC BRCC36 L169W (Homo sapiens, UniProt P46736+Q15018+Q9NXR7, L169W); experiment: BRISC mutant IQF assay: BRCC36 L169W
Method: IQF assays were performed in DUB reaction buffer containing 50 mM HEPES–NaOH pH 7.0, 100 mM NaCl, 0.1 mg ml^−1 BSA, 1 mM DTT and 0.03% v/v Brij-35. […] The final concentration of BRISC WT, all BRISC mutants, HsBRISCΔLoop, MmBRISC and DrBRISCΔNΔC was 1 nM. Other enzymes were tested at the following concentrations: 5 nM ARISC (FL), 10 nM CfBRISCΔNΔC, 250 nM AMSH* (ref. [43]), 500 nM USP2 and 1 μM trypsin (Sigma, 9002-07-7). For Michaelis–Menten experiments, 1 nM BRISC with 0–1 μM IQF K63-linked diubiquitin substrate was used. Michaelis–Menten analyses and Lineweaver–Burk plots were calculated using GraphPad Prism (version 9.0).
To assess enzymatic activity, BRISC complexes were diluted to concentrations between 1 nM and 50 nM. […] Then, 20-μl enzyme reactions were carried out in 384-well black flat-bottom low-flange plates (Corning, 35373). DUB activity was measured using IQF K63-linked diubiquitin (LifeSensors, DU6303) at 50 nM. Cleaved diubiquitin was monitored by measuring fluorescence intensity (excitation, 544 nm; emission, 575 nm; dichroic mirror, 560 nm). Fluorescence intensity was measured every minute for 30 min at 30 °C. Fluorescence intensity units were plotted against time to generate a linear reaction progress curve, where the initial velocity (V0) corresponds to the gradient of the curve (typically achieved within 15 min). IC50 values were calculated using the GraphPad Prism (version 9.0) built-in dose–response equation for inhibitor concentration versus response (variable slope).

[1] = molecular target: T1, panel of 48 purified DUBs (Homo sapiens, UniProt Q96DC9); experiment: DUB selectivity profiling (DUBprofiler, ubiquitin–rhodamine(110)–glycine); settings: DUB OTUB2; screening concentration 5 μM; 5 µM
T1 construct: purchased Ubiquigent (DUBprofiler service)
Method: (§1) Biochemical selectivity profiling (DUBprofiler) was performed by Ubiquigent with a panel of 48 purified DUBs and ubiquitin–rhodamine(110)–glycine as a fluorescent substrate.

[2] = molecular target: T2, panel of 48 purified DUBs (Homo sapiens, UniProt Q9Y2K6); experiment: as above; settings: DUB USP20; screening concentration 5 μM; 5 µM
T2 construct: purchased Ubiquigent (DUBprofiler service)
Method: as §1

[3] = molecular target: T3, panel of 48 purified DUBs (Homo sapiens, UniProt Q9UHP3); experiment: as above; settings: DUB USP25; screening concentration 5 μM; 5 µM
T3 construct: purchased Ubiquigent (DUBprofiler service)
T3 sequence (Q9UHP3 whole entry): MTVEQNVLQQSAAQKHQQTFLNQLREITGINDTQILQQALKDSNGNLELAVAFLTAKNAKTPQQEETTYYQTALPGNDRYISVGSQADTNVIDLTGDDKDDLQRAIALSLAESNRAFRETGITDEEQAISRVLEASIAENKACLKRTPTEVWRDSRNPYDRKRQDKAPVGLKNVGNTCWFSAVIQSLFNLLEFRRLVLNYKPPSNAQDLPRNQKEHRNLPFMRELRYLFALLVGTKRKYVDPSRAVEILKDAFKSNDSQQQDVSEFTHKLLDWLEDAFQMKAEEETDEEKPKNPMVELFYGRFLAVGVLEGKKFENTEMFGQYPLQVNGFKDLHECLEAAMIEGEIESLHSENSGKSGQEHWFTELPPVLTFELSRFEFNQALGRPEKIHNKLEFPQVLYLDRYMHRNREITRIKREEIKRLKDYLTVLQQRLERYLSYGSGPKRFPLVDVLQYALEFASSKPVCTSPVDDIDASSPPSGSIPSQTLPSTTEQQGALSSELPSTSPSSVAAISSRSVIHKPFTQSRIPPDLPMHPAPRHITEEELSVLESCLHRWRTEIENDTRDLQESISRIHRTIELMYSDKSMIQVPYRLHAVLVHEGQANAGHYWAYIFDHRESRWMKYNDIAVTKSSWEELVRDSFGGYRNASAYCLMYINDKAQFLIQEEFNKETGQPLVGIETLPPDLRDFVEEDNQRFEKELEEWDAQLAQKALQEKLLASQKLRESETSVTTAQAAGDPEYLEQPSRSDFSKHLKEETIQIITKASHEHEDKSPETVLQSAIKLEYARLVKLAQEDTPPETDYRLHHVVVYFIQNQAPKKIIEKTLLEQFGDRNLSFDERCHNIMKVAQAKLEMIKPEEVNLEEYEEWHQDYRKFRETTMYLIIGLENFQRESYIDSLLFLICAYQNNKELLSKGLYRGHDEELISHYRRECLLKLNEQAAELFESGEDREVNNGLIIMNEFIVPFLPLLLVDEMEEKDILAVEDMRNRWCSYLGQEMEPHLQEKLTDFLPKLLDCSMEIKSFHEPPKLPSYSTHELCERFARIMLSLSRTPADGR
Method: as §1

[4] = molecular target: T4, panel of 48 purified DUBs (Homo sapiens, UniProt P45974); experiment: as above; settings: DUB USP5; screening concentration 5 μM; 5 µM
T4 construct: purchased Ubiquigent (DUBprofiler service)
Method: as §1

[5] = molecular target: T5, panel of 48 purified DUBs (Homo sapiens, UniProt Q96FJ0); experiment: as above; settings: screening concentration 5 μM, 5 µM
T5 construct: purchased Ubiquigent (DUBprofiler service)
T5 sequence (Q96FJ0 whole entry): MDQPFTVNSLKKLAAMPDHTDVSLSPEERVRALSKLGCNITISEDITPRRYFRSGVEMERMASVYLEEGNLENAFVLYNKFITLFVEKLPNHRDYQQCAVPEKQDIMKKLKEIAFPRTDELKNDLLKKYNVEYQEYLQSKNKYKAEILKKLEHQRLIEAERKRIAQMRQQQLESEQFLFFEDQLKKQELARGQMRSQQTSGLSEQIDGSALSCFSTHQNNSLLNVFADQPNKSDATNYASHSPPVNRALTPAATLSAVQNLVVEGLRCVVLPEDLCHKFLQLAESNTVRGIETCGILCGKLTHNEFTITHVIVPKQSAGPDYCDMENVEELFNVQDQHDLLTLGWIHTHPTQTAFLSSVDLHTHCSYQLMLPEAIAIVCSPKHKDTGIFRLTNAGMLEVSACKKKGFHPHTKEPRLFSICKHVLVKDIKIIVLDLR
Method: as §1

[6] = molecular target: T6, panel of 48 purified DUBs (Homo sapiens, UniProt Q70EL2); experiment: as above; settings: DUB USP45; screening concentration 5 μM; 5 µM
T6 construct: purchased Ubiquigent (DUBprofiler service)
Method: as §1

[7] = molecular target: T7, panel of 48 purified DUBs (Homo sapiens, UniProt Q9UPU5); experiment: as above; settings: DUB USP24; screening concentration 5 μM; 5 µM
T7 construct: purchased Ubiquigent (DUBprofiler service)
Method: as §1

[8] = molecular target: T8, panel of 48 purified DUBs (Homo sapiens, UniProt Q6R6M4); experiment: as above; settings: DUB USP17; screening concentration 5 μM; 5 µM
T8 construct: purchased Ubiquigent (DUBprofiler service)
Method: as §1

[9] = molecular target: T9, panel of 48 purified DUBs (Homo sapiens, UniProt Q13107); experiment: as above; settings: DUB USP4; screening concentration 5 μM
T9 construct: purchased Ubiquigent (DUBprofiler service)
Method: as §1

[10] = molecular target: T10, panel of 48 purified DUBs (Homo sapiens, UniProt Q93008); experiment: as above; settings: DUB USP9X; screening concentration 5 μM; 5 µM
T10 construct: purchased Ubiquigent (DUBprofiler service)
T10 sequence (Q93008 whole entry): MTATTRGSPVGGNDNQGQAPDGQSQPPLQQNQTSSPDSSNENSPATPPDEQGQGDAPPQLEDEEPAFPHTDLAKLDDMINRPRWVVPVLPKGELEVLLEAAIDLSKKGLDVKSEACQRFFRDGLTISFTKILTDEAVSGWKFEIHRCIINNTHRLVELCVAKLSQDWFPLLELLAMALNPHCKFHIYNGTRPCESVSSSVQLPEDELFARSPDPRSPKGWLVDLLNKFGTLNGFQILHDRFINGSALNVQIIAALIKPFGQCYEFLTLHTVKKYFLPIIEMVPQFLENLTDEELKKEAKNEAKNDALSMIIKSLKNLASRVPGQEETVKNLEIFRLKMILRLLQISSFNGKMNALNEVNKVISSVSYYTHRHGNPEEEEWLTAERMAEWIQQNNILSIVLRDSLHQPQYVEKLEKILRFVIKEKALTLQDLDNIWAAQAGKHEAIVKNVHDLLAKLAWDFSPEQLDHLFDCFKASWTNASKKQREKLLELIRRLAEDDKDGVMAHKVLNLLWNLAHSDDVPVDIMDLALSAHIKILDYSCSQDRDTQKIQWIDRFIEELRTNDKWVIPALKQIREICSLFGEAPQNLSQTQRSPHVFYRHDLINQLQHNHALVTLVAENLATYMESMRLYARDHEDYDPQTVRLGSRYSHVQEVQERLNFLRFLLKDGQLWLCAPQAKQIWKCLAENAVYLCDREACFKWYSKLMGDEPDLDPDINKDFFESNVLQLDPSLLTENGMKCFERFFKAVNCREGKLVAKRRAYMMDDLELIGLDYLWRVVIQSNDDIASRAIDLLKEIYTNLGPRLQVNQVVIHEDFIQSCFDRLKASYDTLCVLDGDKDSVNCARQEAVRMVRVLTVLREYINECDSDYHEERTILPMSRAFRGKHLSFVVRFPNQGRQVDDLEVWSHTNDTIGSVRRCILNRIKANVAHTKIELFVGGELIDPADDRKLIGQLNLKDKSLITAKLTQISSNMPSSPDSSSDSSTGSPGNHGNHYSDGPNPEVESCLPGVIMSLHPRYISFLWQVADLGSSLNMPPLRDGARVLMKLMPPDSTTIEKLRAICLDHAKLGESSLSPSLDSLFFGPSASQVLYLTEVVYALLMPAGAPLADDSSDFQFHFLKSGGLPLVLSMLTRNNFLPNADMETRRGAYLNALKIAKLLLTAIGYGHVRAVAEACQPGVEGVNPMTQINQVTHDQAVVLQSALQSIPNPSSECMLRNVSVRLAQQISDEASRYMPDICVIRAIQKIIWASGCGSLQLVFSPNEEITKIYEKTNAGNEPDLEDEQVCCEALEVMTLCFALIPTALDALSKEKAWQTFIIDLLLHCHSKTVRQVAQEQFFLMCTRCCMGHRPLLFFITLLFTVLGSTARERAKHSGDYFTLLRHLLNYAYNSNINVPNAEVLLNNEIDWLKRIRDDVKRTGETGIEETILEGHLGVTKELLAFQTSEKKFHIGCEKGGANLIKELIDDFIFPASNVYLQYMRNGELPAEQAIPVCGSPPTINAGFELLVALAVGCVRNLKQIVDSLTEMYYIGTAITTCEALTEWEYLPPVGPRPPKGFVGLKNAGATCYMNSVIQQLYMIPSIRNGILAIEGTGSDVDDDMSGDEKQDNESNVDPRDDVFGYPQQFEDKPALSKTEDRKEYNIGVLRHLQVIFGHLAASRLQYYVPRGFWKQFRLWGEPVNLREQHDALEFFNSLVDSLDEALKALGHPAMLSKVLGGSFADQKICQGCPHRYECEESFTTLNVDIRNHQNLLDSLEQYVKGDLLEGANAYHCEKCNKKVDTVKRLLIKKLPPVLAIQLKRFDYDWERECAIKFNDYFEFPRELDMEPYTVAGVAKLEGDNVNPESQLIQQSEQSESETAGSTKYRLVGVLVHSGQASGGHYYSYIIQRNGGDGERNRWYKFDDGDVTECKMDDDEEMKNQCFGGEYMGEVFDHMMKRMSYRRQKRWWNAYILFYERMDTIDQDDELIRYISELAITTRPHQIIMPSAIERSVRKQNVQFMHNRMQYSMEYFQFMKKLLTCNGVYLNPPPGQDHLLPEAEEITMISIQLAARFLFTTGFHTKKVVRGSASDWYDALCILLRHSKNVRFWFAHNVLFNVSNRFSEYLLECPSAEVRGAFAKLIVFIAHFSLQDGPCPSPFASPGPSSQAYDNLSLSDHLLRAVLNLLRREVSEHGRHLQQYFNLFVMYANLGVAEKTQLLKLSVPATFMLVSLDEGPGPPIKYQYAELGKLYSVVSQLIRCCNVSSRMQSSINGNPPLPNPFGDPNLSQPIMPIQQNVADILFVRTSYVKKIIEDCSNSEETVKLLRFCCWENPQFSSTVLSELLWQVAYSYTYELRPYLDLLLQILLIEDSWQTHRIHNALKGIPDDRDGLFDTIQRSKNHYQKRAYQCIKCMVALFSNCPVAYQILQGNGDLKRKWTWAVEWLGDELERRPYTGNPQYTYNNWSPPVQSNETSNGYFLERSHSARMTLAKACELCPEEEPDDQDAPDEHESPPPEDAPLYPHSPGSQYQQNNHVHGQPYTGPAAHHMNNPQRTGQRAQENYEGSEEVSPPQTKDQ
Method: as §1

[11] = molecular target: T11, panel of 48 purified DUBs (Homo sapiens, UniProt P62068); experiment: as above; settings: DUB USP46/UAF1/WDR20; screening concentration 5 μM; 5 µM
T11 construct: purchased Ubiquigent (DUBprofiler service)
Method: as §1

[12] = molecular target: T12, panel of 48 purified DUBs (Homo sapiens, UniProt Q96G74); experiment: as above; settings: DUB OTUD5(p177S); screening concentration 5 μM; 5 µM
T12 construct: purchased Ubiquigent (DUBprofiler service)
Method: as §1

[13] = molecular target: T13, panel of 48 purified DUBs (Homo sapiens, UniProt Q93009); experiment: as above; settings: DUB USP7; screening concentration 5 μM; 5 µM
T13 construct: purchased Ubiquigent (DUBprofiler service)
Method: as §1

[14] = molecular target: T14, panel of 48 purified DUBs (Homo sapiens, UniProt Q7L8S5); experiment: as above; settings: DUB OTUD6A; screening concentration 5 μM; 5 µM
T14 construct: purchased Ubiquigent (DUBprofiler service)
Method: as §1

[15] = molecular target: T15, panel of 48 purified DUBs (Homo sapiens, UniProt Q5T2D3); experiment: as above; settings: DUB OTUD3; screening concentration 5 μM; 5 µM
T15 construct: purchased Ubiquigent (DUBprofiler service)
Method: as §1

[16] = molecular target: T16, panel of 48 purified DUBs (Homo sapiens, UniProt Q6GQQ9); experiment: as above; settings: DUB Cezanne; screening concentration 5 μM; 5 µM
T16 construct: purchased Ubiquigent (DUBprofiler service)
T16 sequence (Q6GQQ9 whole entry): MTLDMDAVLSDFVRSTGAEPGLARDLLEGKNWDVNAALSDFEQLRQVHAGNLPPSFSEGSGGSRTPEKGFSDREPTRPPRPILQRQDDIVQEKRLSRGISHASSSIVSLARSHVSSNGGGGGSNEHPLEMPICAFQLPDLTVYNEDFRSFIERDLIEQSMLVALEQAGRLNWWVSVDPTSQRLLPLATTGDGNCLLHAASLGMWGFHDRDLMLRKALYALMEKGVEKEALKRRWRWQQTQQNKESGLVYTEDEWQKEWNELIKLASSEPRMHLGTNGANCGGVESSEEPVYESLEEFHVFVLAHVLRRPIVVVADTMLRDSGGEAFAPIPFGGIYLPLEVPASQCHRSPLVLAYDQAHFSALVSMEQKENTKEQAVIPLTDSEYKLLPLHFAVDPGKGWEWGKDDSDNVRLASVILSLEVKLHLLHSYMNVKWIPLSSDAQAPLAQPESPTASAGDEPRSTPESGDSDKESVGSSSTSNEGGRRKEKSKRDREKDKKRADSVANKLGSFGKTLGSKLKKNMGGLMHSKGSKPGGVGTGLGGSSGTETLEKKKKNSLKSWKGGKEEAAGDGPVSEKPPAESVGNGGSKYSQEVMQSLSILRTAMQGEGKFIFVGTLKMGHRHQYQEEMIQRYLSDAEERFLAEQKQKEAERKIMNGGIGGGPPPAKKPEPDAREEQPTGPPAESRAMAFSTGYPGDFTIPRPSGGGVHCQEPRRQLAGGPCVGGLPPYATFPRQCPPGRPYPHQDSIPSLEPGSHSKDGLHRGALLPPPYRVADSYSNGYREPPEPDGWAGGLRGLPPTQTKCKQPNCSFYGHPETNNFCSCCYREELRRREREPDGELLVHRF
Method: as §1

[17] = molecular target: T17, panel of 48 purified DUBs (Homo sapiens, UniProt Q70CQ3); experiment: as above; settings: DUB USP30; screening concentration 5 μM
T17 construct: purchased Ubiquigent (DUBprofiler service)
Method: as §1

[18] = molecular target: T18, panel of 48 purified DUBs (Homo sapiens, UniProt Q8N6M0); experiment: as above; settings: DUB OTUD6B; screening concentration 5 μM; 5 µM
T18 construct: purchased Ubiquigent (DUBprofiler service)
Method: as §1

[19] = molecular target: T19, panel of 48 purified DUBs (Homo sapiens, UniProt P09936); experiment: as above; settings: DUB UCHL1; screening concentration 5 μM; 5 µM
T19 construct: purchased Ubiquigent (DUBprofiler service)
T19 sequence (P09936 whole entry): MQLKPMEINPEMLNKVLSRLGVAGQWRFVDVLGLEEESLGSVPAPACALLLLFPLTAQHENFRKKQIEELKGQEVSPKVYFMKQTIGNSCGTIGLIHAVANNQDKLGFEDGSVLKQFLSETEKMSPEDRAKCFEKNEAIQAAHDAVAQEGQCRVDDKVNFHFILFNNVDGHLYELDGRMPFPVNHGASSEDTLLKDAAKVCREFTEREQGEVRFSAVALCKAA
Method: as §1

[20] = molecular target: T20, panel of 48 purified DUBs (Homo sapiens, UniProt Q96RU2); experiment: as above; settings: DUB USP28; screening concentration 5 μM; 5 µM
T20 construct: purchased Ubiquigent (DUBprofiler service)
Method: as §1

IC50 (BRISC BRCC36 L169W): 91 µM
reduction of inhibition over wild-type complex (BRISC BRCC36 L169W): > 100 fold
remaining activity at 0.0035 µM (BRISC BRCC36 L169W; FX-171-C 0.0035 μM, read-out: Normalised V0): 94%
remaining activity at 0.035 µM (BRISC BRCC36 L169W; FX-171-C 0.035 μM, read-out: Normalised V0): 91.9%
remaining activity at 0.35 µM (BRISC BRCC36 L169W; FX-171-C 0.35 μM, read-out: Normalised V0): 94%
remaining activity at 3.1 µM (BRISC BRCC36 L169W; FX-171-C 3.1 μM, read-out: Normalised V0): 93.5%
remaining activity at 6.25 µM (BRISC BRCC36 L169W; FX-171-C 6.25 μM, read-out: Normalised V0): 90.3%
remaining activity at 12.5 µM (BRISC BRCC36 L169W; FX-171-C 12.5 μM, read-out: Normalised V0): 89.8%
remaining activity at 25 µM (BRISC BRCC36 L169W; FX-171-C 25 μM, read-out: Normalised V0): 93.8%
remaining activity at 50 µM (BRISC BRCC36 L169W; FX-171-C 50 μM, read-out: Normalised V0): 84.8%
Structure (SMILES): O=C(NC1C2CNCC21)c1nn(C(=O)c2c(Cl)cccc2Cl)cc1NC(=O)c1c(Cl)cccc1Cl (stereo not shown) [FX-171-C]

Activity (% control) [1]: 97 % control and 96 % control
Activity (% control) [2]: 93 % control and 101 % control
Activity (% control) [3]: 93 % control and 94 % control
Activity (% control) [4]: 103 % control and 105 % control
Activity (% control) ([5]; DUB AMSH-LP(+Zn2+)): 100 % control and 99 % control
Activity (% control) ([5]; DUB AMSH-LP): 98 % control and 90 % control
Activity (% control) [6]: 112 % control and 107 % control
Activity (% control) [7]: 98 % control and 99 % control
Activity (% control) [8]: 89 % control and 83 % control
Activity (% control) [9]: 101 % control
Activity (% control) [10]: 103 % control and 98 % control
Activity (% control) [11]: 95 % control and 99 % control
Activity (% control) [12]: 96 % control and 99 % control
Activity (% control) [13]: 116 % control and 121 % control
Activity (% control) [14]: 100 % control and 103 % control
Activity (% control) [15]: 95 % control and 93 % control
Activity (% control) [16]: 88 % control and 90 % control
Activity (% control) [17]: 89 % control
Activity (% control) [18]: 102 % control and 101 % control
Activity (% control) [19]: 104 % control and 112 % control
Activity (% control) [20]: 107 % control and 96 % control
Structure (SMILES): O=C(NC1CCNCC1)c1nn(C(=O)c2c(Cl)cccc2Cl)cc1NC(=O)c1c(Cl)cccc1Cl [JMS-175-2]
